One experiment relates to rat 5α-reductase. As to the kind of experiment: Assay of Rat 5α-reductase Inhibition. The experiment is classed as biochemical, rat (Sprague-Dawley). Conditions: 10^-8 M test compound; rat prostate 5α-reductase, 1 μM [14C] testosterone, pH 6.5, 37° C., 15 to 30 minutes. The method, then: The prostatic lobes of a mature male rat (body weight 350-450 g, Sprague-Dawley strain) were cut into small pieces with scissors. About three parts by weight of a buffer solution [20 mM potassium phosphate buffer solution (ph 7.4) containing 0.33M sucrose, 1 mM dithiothreitol, 50 μM nicotinamide adenine dinucleotide phosphate-reduced form (NADPH) and 0.001% PMSF (phenylmethyl sulfonyl fluoride)] were added to one part by weight of the tissue pieces, and the mixture was homogenized first by means of a Polytron (trade mark, KINEMATICA GmbH) homogenizer, and then by means of a Teflon (trade mark) glass homogenizer. The prostatic tissue suspension thus homogenized was then centrifuged (140000×g, 60 minutes) to separate the precipitate.
About three parts by weight of the buffer solution described above were added to one part of the precipitate to suspend it, and the suspension was centrifuged again (140000×g, 60 minutes) to wash it and separate a precipitate, which was regarded as a rat 5α-reductase preparation. Sufficient of the buffer solution described above was added to this precipitate for the protein content of the solution to become between 20 and 40 mg/ml. The solution was frozen and stored at -80° C. The protein content was determined by a Bio-Rad protein assay in which bovine γ-globulin (Cohn Fraction II, Sigma) was used as the protein standard.
5 μl of a dimethyl sulfoxide or ethanol solution in which a test compound to be tested was dissolved were added to 0.5 ml of a 40 mM potassium phosphate buffer solution (pH 6.5) containing rat 5α-reductase (protein content, 1 mg), 1 μM [^14 C] testosterone, 1 mM dithiothreitol and 500 μM NADPH (final concentration 10^-8 M of the test compound), and incubated for 15 to 30 minutes at 37° C. As a control, only the solvent was added to one sample. 2 ml of ethyl acetate containing 10 μg each of testosterone, 5α-dihydrotestosterone and androstenedione were then added to stop the reaction. The mixture was centrifuged (1400×g, 5 minutes). The ethyl acetate layer was separated and transferred to another test tube, where it was evaporated to dryness whilst spraying it with nitrogen gas. The steroids were dissolved in 40 μl of ethyl acetate. The solution was spotted on a thin layer chromatographic plate (LK5DF silica plate, Whatman), and developed with a mixture of ethyl acetate with cyclohexane (1:1 by volume) twice at room temperature. The steroid fraction was identified by color development by ultraviolet radiation or by heating with a […]/10% sulfuric acid solution. The radioactivity on the thin layer chromatographic plate was measured by means of a bio-image analyzer (Fuji Film Co. Ltd.). The enzyme activity was given by the amount [conversion rate (%)] of [^14 C] 5α-dihydro-testosterone which was converted from the [^14 C] testosterone initially added. The rat 5α-reductase inhibiting activity of a test sample was calculated from the following equation: [formula]

Experiment [1] has as its system testosterone 5α-reductase. Conditions: background, U.S. Pat. No. 4,179,453 and 4,760,071; cited from earlier work.

Consider 16 compounds from patent publication US5302621A, “Azasteroid compounds for the treatment of prostatic hypertrophy, their preparation and use” (Sankyo Company, Limited, priority 1990, dated 1994).

SMILES strings stand for the structures.

For the compound `C[C@]12CCC(=O)N[C@@H]1CC[C@@H]1[C@@H]2CC[C@]2(C)[C@@H](C(=O)NC(Cc3ccccc3)c3ccccc3)CC[C@@H]12` (stereo partly drawn) [Example No. 3, N-(1,2-Diphenylethyl)-3-oxo-4-aza-5α-androstane-17β-carboxamide], in the experiment on rat 5α-reductase, the “Rat 5α-reductase inhibiting activity: Inhibiting activity (%)” value (“Rat 5α-reductase inhibiting activity … (%)” for short) is on record as 89.1%.
Still for that read-out and setting: for `Cc1ccc(C[C@H](NC(=O)[C@H]2CC[C@H]3[C@@H]4CC[C@H]5NC(=O)CC[C@]5(C)[C@H]4CC[C@]23C)c2ccccc2)cc1` [Example No. 62, N-[(S)-2-(4-Methylphenyl)-1-phenylethyl]-3-oxo-4-aza-5α-androstane-17β-carboxamide] the value was 90.1%; for `C[C@]12C=CC(=O)N[C@@H]1CC[C@@H]1[C@@H]2CC[C@]2(C)[C@@H](C(=O)NC(Cc3ccccc3)c3ccccc3)CC[C@@H]12` (stereo partly drawn) [Example No. 8, N-(1,2-Diphenylethyl)-3-oxo-4-aza-5α-androst-1-ene-17β-carboxamide], 74.6%; for `C[C@]12C=CC(=O)N[C@@H]1CC[C@@H]1[C@@H]2CC[C@]2(C)[C@@H](C(=O)N[C@H](c3ccccc3)[C@@H](O)c3ccccc3)CC[C@@H]12` [Example No. 73, N-[(1R,2S)-2-Hydroxy-1,2-diphenylethyl]-3-oxo-4-aza-5α-androst-1-ene-17β-carboxamide], 80.5%.
For the compound `CCN(CC)C(=O)C1CCC2C3CCC4NC(=O)C=CC4(C)C3CCC12C` (centres unmarked) [Compound A1], the “5α-reductase inhibitory activity of prior-art compounds, in words” value in experiment [1] is recorded as “quite a potent activity”.
With `CN1C(=O)CC[C@]2(C)[C@H]3CC[C@]4(C)[C@@H](C(=O)NC(C)(C)c5ccccc5)CC[C@H]4[C@@H]3CC[C@@H]12` [Example No. 40, N-(1-Methyl-1-phenylethyl)-4-methyl-3-oxo-4-aza-5α-androstane-17β-carboxamide], the “Rat 5α-reductase inhibiting activity … (%)” value in the experiment on rat 5α-reductase stood at 88.6%.
The same measure, in the same setting: the same measure for `C[C@]12CC[C@H]3[C@@H](CC=C4NC(=O)CC[C@@]43C)[C@@H]1CC[C@@H]2C(=O)NC(Cc1ccccc1)c1ccccc1` (stereo partly drawn) [Example No. 12, N-(1,2-Diphenylethyl)-3-oxo-4-azaandrost-5-ene-17β-carboxamide]: 78.4%; for `C[C@]12C=CC(=O)N[C@@H]1CC[C@@H]1[C@@H]2CC[C@]2(C)[C@@H](C(=O)NN(c3ccccc3)c3ccccc3)CC[C@@H]12` [Example No. 65, N,N-Diphenyl-3-oxo-4-aza-5α-androst-1-ene-17β-carbohydrazide]: 80.0%; for `CN1C(=O)CC[C@@]2(C)C1=CC[C@H]1[C@@H]3CC[C@H](C(=O)NC(C)(C)c4ccccc4)[C@@]3(C)CC[C@@H]12` [Example No. 42, N-(1-Methyl-1-phenylethyl)-4-methyl-3-oxo-4-aza-androst-5-ene-17β-carboxamide]: 72.3%.
Same read-out and setting: the same measure for `COc1ccc(C(C)(C)NC(=O)[C@H]2CC[C@H]3[C@@H]4CC[C@H]5NC(=O)C=C[C@]5(C)[C@H]4CC[C@]23C)cc1` [Example No. 44, N-[1-(4-Methoxyphenyl)-1-methylethyl]-3-oxo-4-aza-5α-androst-1-ene-17β-carboxamide]: 73.2%.
On to `CC(C)(NC(=O)[C@H]1CC[C@H]2[C@@H]3CC[C@H]4NC(=O)CC[C@]4(C)[C@H]3CC[C@]12C)c1ccccc1` [Example No. 37, N-(1-Methyl-1-phenylethyl)-3-oxo-4-aza-5α-androstane-17β-carboxamide], for which, in the experiment on rat 5α-reductase, the “Rat 5α-reductase inhibiting activity … (%)” value is listed as 82.2%.
The same measure, in the same setting: for `CN1C(=O)CC[C@]2(C)[C@H]3CC[C@]4(C)[C@@H](C(=O)NC(c5ccccc5)c5ccccc5)CC[C@H]4[C@@H]3CC[C@@H]12` [Example No. 20, N-(Diphenylmethyl)-4-methyl-3-oxo-4-aza-5α-androstane-17β-carboxamide] the value was 86.7%.
As for `CC(C)(C)NC(=O)C1CCC2C3CCC4NC(=O)C=CC4(C)C3CCC12C` (centres unmarked) [Compound A2, reference compound], in the experiment on rat 5α-reductase, the “Rat 5α-reductase inhibiting activity … (%)” value amounted to 30.0%. For the same compound, in experiment [1], the “5α-reductase inhibitory activity of prior-art compounds, in words” value is reported as “quite a potent activity”.
On to `C[C@]12CCC(=O)N[C@@H]1CC[C@@H]1[C@@H]2CC[C@]2(C)[C@@H](C(=O)N(Cc3ccccc3)Cc3ccccc3)CC[C@@H]12` [Example No. 4, N,N-Dibenzyl-3-oxo-4-aza-5α-androstane-17β-carboxamide], for which the “Rat 5α-reductase inhibiting activity … (%)” value in the experiment on rat 5α-reductase amounted to 74.1%.
Still for that read-out and setting: the same measure for `CN1C(=O)CC[C@]2(C)[C@H]3CC[C@]4(C)[C@@H](C(=O)NC(C)(c5ccccc5)c5ccccc5)CC[C@H]4[C@@H]3CC[C@@H]12` [Example No. 26, N-(1,1-Diphenylethyl)-4-methyl-3-oxo-4-aza-5α-androstane-17β-carboxamide]: 87.3%; for `C[C@]12CCC(=O)N[C@@H]1CC[C@@H]1[C@@H]2CC[C@]2(C)[C@@H](C(=O)NC(c3ccccc3)c3ccccc3)CC[C@@H]12` [Example No. 1, N-(Diphenylmethyl)-3-oxo-4-aza-5α-androstane-17β-carboxamide]: 89.2%.
